Data published in PMC12153294 (mBio, 2025).
“And” between values parts separate entries of the source, which are not always exact repeats. Identical values can stand only once. Like-named read-outs stand apart in the source and are kept apart here.

Experiments:
[1] = AlphaScreen counter screen with Bn-His6 control peptide; conditions: same figure table as Mac1 IC50 (μM), NI not defined; for IC50: Bn-His peptide control, unit inferred
Protocol: The AlphaScreen reactions were carried out in 384-well plates (Alphaplate, PerkinElmer, Waltham, MA) in a total volume of 40 µL in buffer containing 25 mM HEPES (pH 7.4), 100 mM NaCl, 0.5 mM TCEP, 0.1% BSA, and 0.05% CHAPS. All reagents were prepared as 4× stocks, and 10 µL of each reagent was added to a final volume of 40 µL. All compounds were transferred acoustically using ECHO 555 (Beckman Inc) and preincubated after mixing with purified His-tagged macrodomain protein (250 nM) for 30 min at RT, followed by the addition of a 10 amino acid biotinylated and ADP-ribosylated peptide [ARTK(Bio) QTARK (Aoa-RADP)S] (Cambridge peptides) (625 nM). After 1 h incubation at RT, streptavidin-coated donor beads (7.5 µg/mL) and nickel chelate acceptor beads (7.5 µg/mL) (PerkinElmer AlphaScreen Histidine Detection Kit) were added under low light conditions, and plates were shaken at 400 rpm for 60 min at RT protected from light. Plates were kept covered and protected from light at all steps and read on the BioTek plate reader using an AlphaScreen 680 excitation/570 emission filter set. For counter screening of the compounds, 25 nM biotinylated and hexahistidine-tagged linker peptide (Bn-His6) (PerkinElmer) was added to the compounds, followed by the addition of beads as described above. For data analysis, the percent inhibition was normalized to positive (DMSO+ labeled peptide) and negative (DMSO + macrodomain + peptide, no ADPr) controls. The IC50 values were calculated via four-parametric non-linear regression analysis, constraining bottom (=0), top (=100), & Hillslope (=1) for all curves.

SARS-CoV-2 Mac1 [2] = molecular target: T1, SARS-CoV-2 Mac1 (Severe acute respiratory syndrome coronavirus 2, UniProt P0DTD1); assay: biochemical; conditions: inhibition of Mac1 binding to ADP-ribosylated peptide; average of 2 independent experiments; read-out: Mac1 IC50 (AlphaScreen assay)
SARS-CoV-2 Mac1 [3] = molecular target: T1, SARS-CoV-2 Mac1; assay: Differential scanning fluorimetry (DSF) thermal shift assay; format: binding; conditions: thermal stability of SARS-CoV-2 Mac1, increasing compound concentrations
Protocol: Thermal shift assay with DSF involved the use of LightCycler 480 Instrument (Roche Diagnostics). In total, a 15 µL mixture containing 8 × SYPRO Orange (Invitrogen) and 10 µM macrodomain protein in buffer containing 20 mM HEPES-NaOH, pH 7.5, and various concentrations of ADP-ribose or hit compounds was mixed on ice in a 384-well PCR plate (Roche). Fluorescent signals were measured from 25 to 95°C in 0.2°C/30/S steps (excitation, 470–505 nm; detection, 540–700 nm). The main measurements were carried out in triplicate. Data evaluation and Tm determination involved the use of the Roche LightCycler 480 Protein Melting Analysis software, and data fitting calculations involved the use of single-site binding curve analysis on GraphPad Prism. The thermal shift (ΔTm) was calculated by subtracting the Tm values of the DMSO from the Tm values of the compounds.

[4] = read-out: Reported EC50; cited from earlier work
JHMV-nLuc = format: cell-based, murine hepatitis virus (MHV)
L929 cells = assay: Cell viability, MTT assay, L929 cells; format: cell-based; conditions: concentrations tested
Protocol: (§1) Delayed brain tumor (DBT), L929, and Calu3 Cellular metabolic activity was assessed using a CyQUANT MTT cell proliferation assay (Thermo Fisher Scientific) by following the manufacturer’s instructions.

JHMV [5] = assay: microbe, parasite or virus in culture; format: cell-based, murine hepatitis virus (MHV); conditions: for Concentration at which infectious virus production was inhibited: lowest effective concentration tested
[6] = LogD determination, shake-flask method; format: physicochemical; conditions: octanol/PBS, pH 7.4
Protocol: In total, 0.11 mg of each compound was weighed out into 2 mL centrifuge tubes; 1 mL of octanol-saturated PBS or 0.1M HCl was added to each centrifuge tube and vortexed to dissolve. Then, 0.5–1.0 mL of the PBS-saturated octanol was added to the 0.5–1.0 mL octanol-saturated PBS supernatant and vortexed. Next, 100 μL of the octanol-saturated PBS phase from each centrifuge tube was added to separate UPLC vials; 100 μL of 50:50 MP H2O:ACN was added to each vial and vortexed. The remaining octanol-saturated PBS layer was removed from the vial using a micropipette and stored in a separate vial, and 100 μL of the PBS-saturated octanol layer from each centrifuge tube was added to separate UPLC vials. In total, 100 μL of 50:50 MP H2O:ACN was added to each vial and vortexed. These procedures were repeated in triplicate and then analyzed by UPLC/UV-VIS.

JHMV [7] = format: cell-based, murine hepatitis virus (MHV); conditions: 150 μM
DBT cells = assay: Cell viability, MTT assay, DBT cells; format: cell-based; conditions: concentrations tested
Protocol: as §1

Mac1 = conditions: cited from earlier work
MERS-CoV = format: cell-based
JHMV-WT [8] = assay: microbe, parasite or virus in culture; format: cell-based, murine hepatitis virus (MHV); conditions: for Inhibition of MHV, dose-response: 50 to 200 μM, stated for both DBT and L929 cells, better activity on DBT
[9] = test system: SARS-CoV-2 (Wuhan strain); assay: microbe, parasite or virus in culture; format: cell-based; conditions: for EC50: Severe acute respiratory syndrome coronavirus 2, Calu-3, presence of IFN-γ, estimated from fold reductions, read-out: EC50 against SARS-CoV-2
Calu-3 cells = assay: Cell viability, MTT assay, Calu-3 cells; format: cell-based
Protocol: as §1

JHMV-WT [10] = assay: microbe, parasite or virus in culture; format: cell-based, murine hepatitis virus (MHV); conditions: for EC50: Murine coronavirus, read-out: EC50, % JHMV-WT inhibition on DBT cells
[11] = Calu-3, IFN-γ pre-treated (100 U), 12.5 μM
[12] = Calu-3, IFN-γ pre-treated (100 U), 25 μM

| Compound | IC50 [1] [µM] | IC50 (SARS-CoV-2 Mac1 [2]) | DSF assay ΔTm (SARS-CoV-2 Mac1 [3]) [°C] | JHMV-nLuc replication (luciferase activity), words (JHMV-nLuc) | Cell viability (MTT), words (L929 cells) | logD [6] | Cell viability (MTT), words (DBT cells) | EC50 (JHMV-WT [10]) [µM] | other results |
| --- | --- | --- | --- | --- | --- | --- | --- | --- | --- |
| O=C(NCc1ccncc1)[C@H](Cc1c[nH]c2ccccc12)Nc1ncnc2[nH]ccc12 [Compound 6a] | > 100 | 8.37 µM | 1.29 |  |  |  |  |  |  |
| N#C[C@@]1(c2ccc3c(N)ncnn23)O[C@H](CO)[C@@H](O)[C@H]1O [GS-441524, reference compound] |  |  |  | inhibited virus replication at all concentrations |  |  |  |  | EC50 [4]: ~0.84 µM |
| O=C(O)C(Cc1c[nH]c2ccccc12)Nc1ncnc2[nH]ccc12 (stereo not shown) [Compound 4b] | > 100 | 1.66 µM and < 2 µM | 4.46 | did not affect JHMV replication |  |  |  |  | Bn-His IC50 (AlphaScreen counter screen) ([1]; unit not given): almost no inhibition |
| COC(=O)[C@H](Cc1c[nH]c2ccccc12)Nc1ncnc2[nH]ccc12 [Compound 5a] | > 100 | 14.1 µM | 0.97 | inhibited JHMV replication | do not impact the viability | 1.5 | do not impact the viability |  | Concentration at which infectious virus production was inhibited (JHMV [5]): 200 µM; Fold change in PFU/mL, 5a versus DMSO (JHMV [7]; passage 1 (P1)): 3.17 X; Fold change in PFU/mL, 5a versus DMSO (JHMV [7]; passage 2 (P2)): -2.0 X; Fold change in PFU/mL, 5a versus DMSO (JHMV [7]; passage 3 (P3)): -1.1 X |
| O=C(O)C(Cc1c[nH]c2ccccc12)Nc1ncnc2[nH]ccc12 (stereo not shown) [Compound 4a] | > 100 | 6.1 µM | 4.32 | did not affect JHMV replication | do not impact the viability | -0.61 | do not impact the viability |  | Mac1 enzyme activity (Mac1): inhibited Mac1 enzyme activity |
| O=C(NCc1ccccn1)[C@@H](Cc1c[nH]c2ccccc12)Nc1ncnc2[nH]ccc12 [Compound 6e] | 39.6 | 4.85 µM | 1.17 | inhibited light production from MHV replication in a dose-dependent manner | do not impact the viability |  | do not impact the viability | 53.5 | MERS-CoV replication (MERS-CoV): did not inhibit MERS-CoV replication; Inhibition of MHV, dose-response (JHMV-WT [8]): inhibited MHV in a dose-dependent manner; Reduction of viral titers [9, 11]: 2.7 fold; Reduction of viral titers [9, 12]: 3.8 fold; Infectious virus production ([9]; Calu-3, absence of IFN-γ, 0 to 25 μM): did not reduce infectious virus production; EC50 [9]: ≤ 12.5 µM; Cell viability (MTT), words (Calu-3 cells): do not impact the viability |
| NC(=O)[C@H](Cc1c[nH]c2ccccc12)Nc1ncnc2[nH]ccc12 [Compound 6c] | > 100 | 4.04 µM | 3.06 |  |  |  |  |  |  |
| CC(C)OC(=O)[C@H](Cc1c[nH]c2ccccc12)Nc1ncnc2[nH]ccc12 [Compound 5c] | 25.5 | 3.66 µM | 0.76 | inhibited JHMV replication | do not impact the viability | 3.33 | do not impact the viability | 18.3 | MERS-CoV replication (MERS-CoV): did not inhibit MERS-CoV replication; EC50 (JHMV [5]; Murine coronavirus, 0 to 50 μM on DBT, and 17 Cl-1 cells, read-out: EC50 for inhibition of virus production): 10 to 20 µM; Concentration at which infectious virus production was inhibited (JHMV [5]): 25 µM; Decrease in replication (infectious virus) (JHMV-WT [8]; 50 μM, L929 cells): ~3 logs; EC50 (JHMV-WT [8]; Murine coronavirus, L929, read-out: EC50, % JHMV-WT inhibition on L929 cells): 20 µM; Reduction of viral titers [9, 11]: 3 fold; Reduction of viral titers [9, 12]: 7.5 fold; Reduction of viral titers ([9]; Calu-3, absence of IFN-γ, 25 μM): ~ 2 fold; EC50 [9]: ≤ 12.5 µM; Cell viability (MTT), words (Calu-3 cells): do not impact the viability; Decrease in replication (infectious virus) (JHMV-WT [10]; 50 μM, DBT cells): ~ 1.5 logs |
| O=C(NCc1ccnc(Cl)c1)[C@H](Cc1c[nH]c2ccccc12)Nc1ncnc2[nH]ccc12 [Compound 6b] | > 100 | 7.57 µM | 1.57 |  |  |  |  |  |  |
| O=C(NCc1ccccn1)[C@H](Cc1c[nH]c2ccccc12)Nc1ncnc2[nH]ccc12 [Compound 6d] | 79.2 | 7.58 µM | 1.39 | inhibited light production from MHV replication in a dose-dependent manner | do not impact the viability |  | do not impact the viability | 77.1 | Inhibition of MHV, dose-response (JHMV-WT [8]): inhibited MHV in a dose-dependent manner |
